Data taken from patent US9629884B2, “Compositions and methods for increasing lifespan and health span” (GENEREX PHARMACEUTICALS, INC., priority 2009, dated 2017).

Experiment: Blood glucose level in a diabetic patient (mercy treatment)
Type: in vivo, human
Settings: Diamicron 80 mg, 2 tablets every morning, before OEGJ
Protocol: Based on the above-mentioned rationale, the possibility of using OEGJ for the treatment of diabetes was tested in diabetics on the basis of mercy treatment. A person was first diagnosed with diabetes before undergoing hemorrhoid surgery a year before treatment. Their blood glucose level at that time was 24.0 mmol/L. They were put on insulin treatment for a week and started to take diabetes medicine (Diamicron 80 mg, 2 tablets every morning under fasting condition).

Compound: Cc1ccc(S(=O)(=O)NC(=O)NN2CC3CCCC3C2)cc1 (stereo not shown) [Diamicron]
- average blood glucose level during six-month period on the medication: 9.97 mmol/L
